In patent US20060262149A1, “Ink jet ink and recording material” (priority 2005, published 2006):

What was measured:
[1] = Light fastness of cyan, magenta and yellow ink jet prints on stabilizer-treated Konica QP paper, 50% print density (Example 6); conditions: HP DeskJet 970 Cxi, stabilizer 650-700 mg/m^2, office fluorescent lighting; for DE for magenta after 4 weeks: None = 20.16; for DE for yellow after 4 weeks: None = 4.68
Procedure: (§1) Color densities and CIEL*a*b coordinates before and after exposure are measured using X-Rite 938 Spectrodensitometer. Exposures are carried out using normal office fluorescent lighting. The change in color is given by Delta E (DE) which is calculated by: DE=[(DL*)^2+(Da*)^2+(Db*)^2]^1/2
A resin-coated paper impregnated with inorganic adsorbent particles (Konica QP Photoglossy ink jet paper, Konica Corp.) is purchased. On the ink-receiving layer, a 0.8 wt % methanol solution of the instant compounds is applied in an amount to achieve 650-700 mg/m^2. The paper is allowed to dry under ambient temperature and pressure for 24 hours. Separately, test patterns (cyan, magenta and yellow) are printed on the treated sheets using a Hewlett Packard DeskJet 970 Cxi printer at 50% print density. The obtained prints are left to dry at ambient temperature and pressure for 24 hours.
Color densities and CIEL*a*b coordinates before and after exposure are measured using X-Rite 938 Spectrodensitometer. Exposures are carried out using normal office fluorescent lighting.

[2] = Light fastness of magenta ink jet prints on stabilizer-treated Konica QP paper, 100% print density (Example 5); conditions: HP DeskJet 970 Cxi, stabilizer 650-700 mg/m^2 on Konica QP paper, office fluorescent lighting, None = 25.73
Procedure: A resin-coated paper impregnated with inorganic adsorbent particles (Konica QP Photoglossy ink jet paper, Konica Corp.) is purchased. On the ink-receiving layer, a 0.8 wt % methanol solution of the instant compounds is applied in an amount to achieve 650-700 mg/m^2. The paper is allowed to dry under ambient temperature and pressure for 24 hours.
Separately, test patterns (magenta) are printed on the treated sheets using a Hewlett Packard DeskJet 970 Cxi printer at 100% print density. The obtained prints are left to dry at ambient temperature and pressure for 24 hours.
as §1

| SMILES | DE for magenta after 4 weeks [1] | DE for yellow after 4 weeks [1] | DE for magenta after 4 weeks [2] | DE for cyan after 4 weeks ([1]; cyan, None = 7.29) |
| --- | --- | --- | --- | --- |
| CC(C)(O)CON1C(C)(C)CC(O)CC1(C)C [Instant Example 1] | 17.82 | 1.81 | 18.39 | – |
| CC(C)(O)CON1C(C)(C)CC(O)CC1(C)C [Instant Example 2] | 16.71 | 2.48 | 20.89 | 6.64 |
